What was measured:
[1] = tested on: Raji cells; assay: Cell viability (CCK-8) of Raji cells with PCM4 and DOX; assay type: cell-based, human; settings: result in words
[2] = tested on: lymphoma and leukemia cells; assay: Cell viability (CCK-8) of lymphoma and leukemia cells with PCM4; assay type: cell-based, human; settings: result in words
[3] = tested on: MYC target genes; assay: qRT-PCR of MYC target genes; assay type: cell-based, human; settings: qRT-PCR and RNA-seq; result in words
Procedure: Total RNA was extracted using TRIzol (Invitrogen, CA, USA) according to the manufacturer’s instructions. Reverse transcription of total cellular RNA was carried out using oligo (dT) primers and M-MLV reverse transcriptase (Transgen Biotech, Beijing, China). PCR was performed using a Mycycler thermal cycler and analyzed using LineGene9600. The PCR primer sequences were as follows: MYC forward, 5′-[…]-3′; MYC reverse, 5′-[…]-3′; GAPDH forward, 5′-[…]-3′; GAPDH reverse, 5′-[…]-3′; TFAP4 forward, 5′-[…]-3′, TFAP4 reverse, 5′-[…]-3′; PLD6 forward, 5′-[…]-3′, PLD6 reverse, 5′-[…]-3′; CCNA1 forward, 5′-[…] GCAG-3′, CCNA1 reverse, 5′-[…]-3′; CCND1 forward, 5′-CCGTCC […]-3′, CCND1 reverse, 5′-[…]-3′; CCNE2 forward, 5′-TTC […]-3′; and CCNE2 reverse, 5′-[…]-3′. The human FBXW7 siRNA sequence was 5′-[…]-3′, the human MYC siRNA sequence was 5′-[…] GCGAA-3′, and the human HUWE1 siRNA sequence was 5′-[…]-3’. TRIB3 siRNAs were produced by RiboBio (Guangzhou, China) and transfected using Lipofectamine RNA interference MAX Transfection Reagent (Life Technologies, CA, USA) according to the manufacturer’s instructions.

[4] = tested on: TRIB3-MYC interaction; assay: SIM imaging and Co-IP of the TRIB3-MYC interaction in Raji cells; assay type: cell-based, human; settings: SIM (30 min) and Co-IP (4 μM, six hours), versus PCON, result in words
Procedure: (§1) Co-IP experiments were performed as described previously. Briefly, cells were collected and lysed for 30 min on ice. Soluble lysates were incubated with the indicated antibodies at 4 °C overnight, followed by incubation with Protein A/G Plus-Agarose (Santa Cruz Biotechnology, TX, USA) at 4 °C for 2 h. Soluble lysates were incubated with the indicated Anti-Myc magnetic beads (Bimake.com, B26302), Anti-Flag Affinity Gel (Bimake.com, B23102) or Anti-HA Affinity Gel (Bimake.com, B23302) at 4 °C overnight. Immunocomplexes were separated from the beads and then boiled for 10 min. The precipitated proteins were subjected to SDS-PAGE and blotted with specific antibodies. For immunoblotting assays, proteins were extracted from cells, spleens, or lymphoma tissues using RIPA buffer (Cell Signaling Technology, MA, USA). A BCA Protein Assay Kit was used to determine protein concentrations. Protein extracts were separated by SDS-PAGE, transferred onto PVDF membranes, and subjected to immunoblot analysis. Western blot images were captured by a Tanon 5200 chemiluminescent imaging system (Tanon, Shanghai, […]). Human lymphoma and benign LN paraffin tissue microarrays were purchased from US Biomax (LM482a).
Cells (~20,000) were grown on coverslips and fixed with formalin after the indicated treatment. […]

[5] = tested on: TRIB3 with AKT, p62, COP1, and PML; assay: Co-IP of TRIB3/AKT, TRIB3/p62, TRIB3/COP1, TRIB3/PML (off-target); assay type: cell-based; settings: result in words
Procedure: as §1

[6] = tested on: DLBCL^T64 PDX; assay: PDX model tumor growth and weight, DLBCL T64; assay type: in vivo, human; settings: result in words
Procedure: (§2) Four 5-week-old male NSG mice were implanted subcutaneously with 200 μl of a 1:1 mixture of Matrigel® Basement Membrane Matrix High Concentration (Corning, 354230) and minced fresh tumor fragments resected from lymphoma patients. Approximately 3–4 weeks following implantation, the first-generation mice (G1) were killed, and tumor masses were isolated. The tumor cells were tested for human CD19 (BCL) or CD3 expression (T cell lymphoma), and the remaining tumor mass was cut into 3-mm^3 sections and passaged into 4–5 NSG mice as the second generation (G2). After stable passage of the third generation (G3), the tumor mass of the fourth generation (G4) was equally cut into 3-mm^3 pieces and then passaged subcutaneously into 30–50 NSG mice (100 μl of a 1:2 mixture of Matrigel and tumor tissue) for in vivo treatment (6–8 mice per group, dependent on the experimental drug treatment). During and after treatment with the vehicle control or the indicated agent, tumor burden was evaluated by measuring the tumor volume to determine the therapeutic efficacy in the PDX models. […]
(§3) To evaluate the survival rate, these mice were monitored for 8 months (Myc^Eμ mice). […] During the indicated treatments, tumor burden was evaluated by measuring the tumor volume to determine the therapeutic efficacy in the PDX models.

[7] = tested on: FL^T174 PDX; assay: PDX model tumor growth and weight, FL T174; assay type: in vivo, human; settings: result in words
Procedure: as §2, §3

HLYVSPWGGKRREQLKHKLEQLR [PCM4, fused peptide generated by linking CM4 to a cell-penetrating peptide]
effect on Raji cell proliferation in combination with doxorubicin (DOX) [1]: synergistically inhibited Raji cell proliferation | proliferation of lymphoma and leukemia cells [2]: inhibited the proliferation of most lymphoma and leukemia cells in a time-dependent manner | transcription of MYC target genes [3]: suppressed the transcription of MYC target genes | colocalization and interaction of TRIB3 with MYC in lymphoma cells [4]: inhibited the colocalization and interaction of TRIB3 with MYC | off-target: interactions of TRIB3 with AKT, p62, COP1, and PML [5]: did not disturb the interactions of TRIB3 with these proteins | growth and weights of tumors, combination of PCM4 and DOX ([6]; PDX T64 (high TRIB3 and MYC expression), PCM4 5 mg/kg and DOX 2 mg/kg): further decreased the growth and weights of tumors | tumor growth of PDX ([6]; PDX T64, NSG mice, PCM4 5 mg/kg i.v. three times a week): inhibited the tumor growth | growth and weights of tumors, combination of PCM4 and DOX ([7]; PDX T174 (high TRIB3 and MYC expression), PCM4 5 mg/kg and DOX 2 mg/kg): further decreased the growth and weights of tumors | tumor growth of PDX ([7]; PDX T174, NSG mice, PCM4 5 mg/kg i.v. three times a week): inhibited the tumor growth

From PMC7725785, “TRIB3 promotes MYC-associated lymphoma development through suppression of UBE3B-mediated MYC degradation” (Nature Communications, 2020)
